Measurements reported in the supplement of paper PMC12463676, “Small-molecule dissolution of stress granules by redox modulation benefits ALS models” (Nature Chemical Biology, 2025).

Key:
potassium arsenate = compound: O=[As]([O-])(O)O.[K+] [potassium arsenate]; experiment: thermal stability z-score vs DMSO; higher = more thermally stabilized by treatment; conditions: HeLa; arsenate concentration 1 mM
Experimental: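 Cellular thermal proteome profiling in HeLa cells treated with 1 mM arsenate for 1 h (DMSO pretreatment), heated to ten temperatures (37-66.3 °C). Soluble protein was quantified by TMT mass spectrometry relative to DMSO controls; the thermal stability score was transformed to a z-score; mean of n = 3 experiments.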

lipoamide = compound: NC(=O)CCCCC1CCSS1 [lipoamide]; experiment: as above; conditions: HeLa, lipoamide concentration 100 µM
Experimental: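 Cellular thermal proteome profiling in HeLa cells. Cells were treated with 100 µM lipoamide for 1 h, with or without 1 mM arsenate for a further 1 h, then heated to ten temperatures (37-66.3 °C), and soluble protein was quantified by TMT mass spectrometry relative to 0.1% DMSO controls. The thermal stability score (sum of log2 fold changes minus the abundance score) was transformed to a z-score; mean of n = 3 experiments.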

[1] = arsenate co-treatment: 1 mM arsenate 1 h
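Further: each temperature applied for 3 min, abundance score taken as mean log2 fold change at the two lowest temperatures, z-score obtained by mean subtraction and division by SD.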

## EGLN1 (UniProt Q9GZT9)
Potassium arsenate
  thermal stability z-score: 1.64
lipoamide; [1]
  thermal stability z-score: 0.176
lipoamide; arsenate co-treatment: none
  thermal stability z-score: 0.423

## VCL (UniProt P18206)
UniProt P18206, sequence (P18206 whole entry): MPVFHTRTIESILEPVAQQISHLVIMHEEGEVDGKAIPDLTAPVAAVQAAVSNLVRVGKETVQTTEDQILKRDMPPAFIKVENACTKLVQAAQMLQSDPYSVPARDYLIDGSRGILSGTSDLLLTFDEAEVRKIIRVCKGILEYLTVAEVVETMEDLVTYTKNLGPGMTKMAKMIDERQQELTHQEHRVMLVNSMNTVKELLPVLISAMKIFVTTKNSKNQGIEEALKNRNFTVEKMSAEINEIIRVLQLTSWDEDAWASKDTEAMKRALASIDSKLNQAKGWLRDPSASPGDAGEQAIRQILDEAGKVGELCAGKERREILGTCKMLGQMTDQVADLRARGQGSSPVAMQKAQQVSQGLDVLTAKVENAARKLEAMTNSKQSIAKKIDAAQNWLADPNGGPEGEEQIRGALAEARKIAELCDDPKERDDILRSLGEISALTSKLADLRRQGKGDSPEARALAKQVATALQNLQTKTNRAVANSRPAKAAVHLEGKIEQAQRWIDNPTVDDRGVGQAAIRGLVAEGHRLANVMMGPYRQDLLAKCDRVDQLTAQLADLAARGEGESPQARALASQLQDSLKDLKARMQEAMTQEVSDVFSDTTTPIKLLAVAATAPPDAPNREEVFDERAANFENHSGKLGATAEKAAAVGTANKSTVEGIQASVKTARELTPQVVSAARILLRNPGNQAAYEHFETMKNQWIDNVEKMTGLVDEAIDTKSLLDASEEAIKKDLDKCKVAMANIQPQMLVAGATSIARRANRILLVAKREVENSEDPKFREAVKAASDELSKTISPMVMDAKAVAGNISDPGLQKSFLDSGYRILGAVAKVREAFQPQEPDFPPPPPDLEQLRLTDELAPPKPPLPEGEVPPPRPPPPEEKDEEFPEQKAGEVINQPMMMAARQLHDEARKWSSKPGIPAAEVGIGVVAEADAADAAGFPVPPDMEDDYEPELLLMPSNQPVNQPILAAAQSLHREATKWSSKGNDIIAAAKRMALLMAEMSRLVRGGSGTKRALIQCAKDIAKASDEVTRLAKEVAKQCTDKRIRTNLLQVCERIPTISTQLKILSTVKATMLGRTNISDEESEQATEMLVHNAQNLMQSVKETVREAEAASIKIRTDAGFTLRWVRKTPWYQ
Potassium arsenate
  thermal stability z-score: -2.02
lipoamide; [1]
  thermal stability z-score: -0.353
lipoamide; arsenate co-treatment: none
  thermal stability z-score: -0.286

## SYNE2 (UniProt Q8WXH0)
Potassium arsenate
  thermal stability z-score: -0.123
lipoamide; [1]
  thermal stability z-score: -0.0307
lipoamide; arsenate co-treatment: none
  thermal stability z-score: 0.18

## GOLGA2 (UniProt Q08379)
UniProt Q08379, sequence (Q08379 whole entry): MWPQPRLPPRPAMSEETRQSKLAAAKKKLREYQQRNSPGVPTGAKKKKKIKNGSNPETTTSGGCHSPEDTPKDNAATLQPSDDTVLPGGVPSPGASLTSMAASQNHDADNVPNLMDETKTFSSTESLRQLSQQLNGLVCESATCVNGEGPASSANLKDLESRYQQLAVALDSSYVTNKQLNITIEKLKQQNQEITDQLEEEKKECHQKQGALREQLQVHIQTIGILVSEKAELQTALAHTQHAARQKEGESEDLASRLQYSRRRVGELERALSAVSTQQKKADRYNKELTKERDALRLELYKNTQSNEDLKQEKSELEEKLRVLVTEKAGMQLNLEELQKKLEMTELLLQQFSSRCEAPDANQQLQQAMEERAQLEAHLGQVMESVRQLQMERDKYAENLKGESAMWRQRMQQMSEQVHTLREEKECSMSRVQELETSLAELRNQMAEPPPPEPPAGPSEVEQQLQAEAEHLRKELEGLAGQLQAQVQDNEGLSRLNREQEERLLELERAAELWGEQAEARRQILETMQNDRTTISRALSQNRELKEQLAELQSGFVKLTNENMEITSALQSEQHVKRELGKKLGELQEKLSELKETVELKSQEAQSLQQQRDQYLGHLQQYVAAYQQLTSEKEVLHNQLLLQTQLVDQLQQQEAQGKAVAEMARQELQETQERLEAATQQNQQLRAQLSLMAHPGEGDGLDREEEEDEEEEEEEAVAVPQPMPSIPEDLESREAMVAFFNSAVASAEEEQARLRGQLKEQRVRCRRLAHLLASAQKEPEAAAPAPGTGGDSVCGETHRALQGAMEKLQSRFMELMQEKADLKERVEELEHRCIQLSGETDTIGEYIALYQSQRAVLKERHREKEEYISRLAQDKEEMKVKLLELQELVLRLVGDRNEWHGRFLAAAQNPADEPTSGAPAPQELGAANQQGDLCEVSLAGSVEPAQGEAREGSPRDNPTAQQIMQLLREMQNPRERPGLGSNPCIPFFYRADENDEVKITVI
Potassium arsenate
  thermal stability z-score: 0.679
lipoamide; [1]
  thermal stability z-score: -0.426
lipoamide; arsenate co-treatment: none
  thermal stability z-score: -0.0551

## POLR1B (UniProt Q9H9Y6)
Potassium arsenate
  thermal stability z-score: -1.91
lipoamide; [1]
  thermal stability z-score: 0.138
lipoamide; arsenate co-treatment: none
  thermal stability z-score: -0.017

## SMAP (UniProt O00193)
Potassium arsenate
  thermal stability z-score: -0.154
lipoamide; [1]
  thermal stability z-score: 0.384
lipoamide; arsenate co-treatment: none
  thermal stability z-score: 0.48

## ACYP1 (UniProt P07311)
UniProt P07311, sequence (P07311 whole entry): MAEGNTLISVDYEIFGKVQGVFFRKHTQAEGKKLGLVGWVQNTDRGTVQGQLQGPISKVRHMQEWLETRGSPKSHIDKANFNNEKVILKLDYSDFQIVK
Potassium arsenate
  thermal stability z-score: -0.451
lipoamide; [1]
  thermal stability z-score: -0.11
lipoamide; arsenate co-treatment: none
  thermal stability z-score: -0.304

## PYCR2 (UniProt Q96C36)
UniProt Q96C36, sequence (Q96C36 whole entry): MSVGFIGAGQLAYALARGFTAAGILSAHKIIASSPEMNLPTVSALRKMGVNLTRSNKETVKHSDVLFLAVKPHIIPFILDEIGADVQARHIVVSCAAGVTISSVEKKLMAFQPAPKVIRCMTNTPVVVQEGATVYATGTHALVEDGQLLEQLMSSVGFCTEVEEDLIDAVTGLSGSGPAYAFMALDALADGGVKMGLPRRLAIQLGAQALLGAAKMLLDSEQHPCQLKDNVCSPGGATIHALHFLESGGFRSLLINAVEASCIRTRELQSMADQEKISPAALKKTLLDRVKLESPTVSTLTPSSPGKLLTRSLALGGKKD
Potassium arsenate
  thermal stability z-score: -0.765
lipoamide; [1]
  thermal stability z-score: 0.43
lipoamide; arsenate co-treatment: none
  thermal stability z-score: -0.4

## SYMPK (UniProt Q92797)
Potassium arsenate
  thermal stability z-score: -0.75
lipoamide; [1]
  thermal stability z-score: 0.324
lipoamide; arsenate co-treatment: none
  thermal stability z-score: 0.338

## PRPF18 (UniProt Q99633)
Potassium arsenate
  thermal stability z-score: -0.321
lipoamide; [1]
  thermal stability z-score: -0.378
lipoamide; arsenate co-treatment: none
  thermal stability z-score: 0.186

## AIF1L (UniProt Q9BQI0)
Potassium arsenate
  thermal stability z-score: -0.374
lipoamide; [1]
  thermal stability z-score: -0.218
lipoamide; arsenate co-treatment: none
  thermal stability z-score: -0.305

## SERBP1 (UniProt Q8NC51)
Potassium arsenate
  thermal stability z-score: -0.0206
lipoamide; [1]
  thermal stability z-score: 0.533
lipoamide; arsenate co-treatment: none
  thermal stability z-score: 0.5

## SLC38A1 (UniProt Q9H2H9)
Potassium arsenate
  thermal stability z-score: 1.25
lipoamide; [1]
  thermal stability z-score: 0.457
lipoamide; arsenate co-treatment: none
  thermal stability z-score: 0.549

## SCARB2 (UniProt Q14108)
Potassium arsenate
  thermal stability z-score: 0.368
lipoamide; [1]
  thermal stability z-score: 0.111
lipoamide; arsenate co-treatment: none
  thermal stability z-score: 0.346

## MALSU1 (UniProt Q96EH3)
Potassium arsenate
  thermal stability z-score: -1.01
lipoamide; [1]
  thermal stability z-score: -1.47
lipoamide; arsenate co-treatment: none
  thermal stability z-score: -1.5

## ANXA8L1 (UniProt Q5VT79)
Potassium arsenate
  thermal stability z-score: 0.00565
lipoamide; [1]
  thermal stability z-score: -0.11
lipoamide; arsenate co-treatment: none
  thermal stability z-score: -0.0845

## RAB29 (UniProt O14966)
UniProt O14966, sequence (O14966 whole entry): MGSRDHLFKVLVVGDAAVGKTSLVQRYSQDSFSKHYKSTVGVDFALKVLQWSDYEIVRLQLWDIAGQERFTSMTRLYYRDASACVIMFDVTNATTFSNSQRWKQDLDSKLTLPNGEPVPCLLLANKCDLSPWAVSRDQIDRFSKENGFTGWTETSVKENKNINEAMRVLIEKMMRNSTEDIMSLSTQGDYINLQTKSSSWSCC
Potassium arsenate
  thermal stability z-score: 0.157
lipoamide; [1]
  thermal stability z-score: 0.114
lipoamide; arsenate co-treatment: none
  thermal stability z-score: -0.0606

## NUMB (UniProt P49757)
UniProt P49757, sequence (P49757 whole entry): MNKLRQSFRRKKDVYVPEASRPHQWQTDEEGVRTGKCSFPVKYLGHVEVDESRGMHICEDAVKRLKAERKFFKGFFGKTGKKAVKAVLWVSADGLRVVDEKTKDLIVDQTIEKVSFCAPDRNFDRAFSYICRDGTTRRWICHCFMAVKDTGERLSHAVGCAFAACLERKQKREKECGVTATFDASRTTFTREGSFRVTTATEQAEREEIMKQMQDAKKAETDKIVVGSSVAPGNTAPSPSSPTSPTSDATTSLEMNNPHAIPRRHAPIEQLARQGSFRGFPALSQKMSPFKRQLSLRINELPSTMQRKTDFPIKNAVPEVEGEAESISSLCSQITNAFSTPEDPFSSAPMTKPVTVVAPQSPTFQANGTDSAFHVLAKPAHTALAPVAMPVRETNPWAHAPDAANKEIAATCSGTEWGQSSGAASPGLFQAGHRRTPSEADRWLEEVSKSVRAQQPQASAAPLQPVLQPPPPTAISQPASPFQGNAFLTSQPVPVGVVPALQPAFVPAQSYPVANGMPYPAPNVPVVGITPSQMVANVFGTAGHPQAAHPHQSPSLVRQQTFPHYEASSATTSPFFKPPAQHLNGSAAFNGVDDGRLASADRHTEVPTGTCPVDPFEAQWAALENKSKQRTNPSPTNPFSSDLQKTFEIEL
Potassium arsenate
  thermal stability z-score: -2.09
lipoamide; [1]
  thermal stability z-score: -0.402
lipoamide; arsenate co-treatment: none
  thermal stability z-score: 0.201

## CYC1 (UniProt P08574)
UniProt P08574, sequence (P08574 whole entry): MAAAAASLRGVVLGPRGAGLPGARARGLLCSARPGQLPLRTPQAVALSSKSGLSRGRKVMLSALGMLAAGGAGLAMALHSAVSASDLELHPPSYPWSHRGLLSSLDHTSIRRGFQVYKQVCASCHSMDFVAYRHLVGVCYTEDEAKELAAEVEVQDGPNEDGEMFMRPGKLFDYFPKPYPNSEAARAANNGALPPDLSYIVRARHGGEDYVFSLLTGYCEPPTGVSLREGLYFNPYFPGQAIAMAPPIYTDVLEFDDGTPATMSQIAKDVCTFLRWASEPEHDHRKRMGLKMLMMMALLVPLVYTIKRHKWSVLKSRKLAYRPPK
Potassium arsenate
  thermal stability z-score: -1.31
lipoamide; [1]
  thermal stability z-score: 0.0943
lipoamide; arsenate co-treatment: none
  thermal stability z-score: -0.0471

## FNIP1 (UniProt Q8TF40)
Potassium arsenate
  thermal stability z-score: 0.000327
lipoamide; [1]
  thermal stability z-score: 0.272
lipoamide; arsenate co-treatment: none
  thermal stability z-score: 0.0643

## RPL27 (UniProt P61353)
Potassium arsenate
  thermal stability z-score: -0.612
lipoamide; [1]
  thermal stability z-score: 0.459
lipoamide; arsenate co-treatment: none
  thermal stability z-score: 0.431

## BLOC1S3 (UniProt Q6QNY0)
UniProt Q6QNY0, sequence (Q6QNY0 whole entry): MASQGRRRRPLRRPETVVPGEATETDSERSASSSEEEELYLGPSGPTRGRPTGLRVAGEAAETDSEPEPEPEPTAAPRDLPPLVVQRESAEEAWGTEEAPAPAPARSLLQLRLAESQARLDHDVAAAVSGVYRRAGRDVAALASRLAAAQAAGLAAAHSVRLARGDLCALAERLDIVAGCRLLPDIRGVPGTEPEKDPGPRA
Potassium arsenate
  thermal stability z-score: 0.0424
lipoamide; [1]
  thermal stability z-score: 0.923
lipoamide; arsenate co-treatment: none
  thermal stability z-score: 0.625

## NT5C2 (UniProt P49902)
UniProt P49902, sequence (P49902 whole entry): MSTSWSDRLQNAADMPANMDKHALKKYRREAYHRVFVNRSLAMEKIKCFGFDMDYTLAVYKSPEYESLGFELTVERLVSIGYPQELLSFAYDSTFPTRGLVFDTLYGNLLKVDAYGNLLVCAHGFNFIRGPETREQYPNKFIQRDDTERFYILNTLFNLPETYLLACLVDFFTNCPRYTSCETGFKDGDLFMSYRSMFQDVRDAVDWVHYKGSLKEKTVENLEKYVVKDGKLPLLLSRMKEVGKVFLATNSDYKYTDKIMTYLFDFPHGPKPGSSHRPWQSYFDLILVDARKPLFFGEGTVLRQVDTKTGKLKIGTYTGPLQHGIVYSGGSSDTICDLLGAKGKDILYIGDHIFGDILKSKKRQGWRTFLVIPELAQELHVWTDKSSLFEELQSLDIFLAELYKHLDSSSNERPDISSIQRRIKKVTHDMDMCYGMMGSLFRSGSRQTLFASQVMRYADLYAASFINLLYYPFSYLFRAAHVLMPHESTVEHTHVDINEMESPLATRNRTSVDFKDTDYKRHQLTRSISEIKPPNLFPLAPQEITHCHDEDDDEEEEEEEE
Potassium arsenate
  thermal stability z-score: -0.0391
lipoamide; [1]
  thermal stability z-score: 0.892
lipoamide; arsenate co-treatment: none
  thermal stability z-score: -0.608

## RLIM (UniProt Q9NVW2)
Potassium arsenate
  thermal stability z-score: 0.107
lipoamide; [1]
  thermal stability z-score: -0.546
lipoamide; arsenate co-treatment: none
  thermal stability z-score: -0.0531

## KDM4A (UniProt O75164)
Potassium arsenate
  thermal stability z-score: -0.178
lipoamide; [1]
  thermal stability z-score: -0.16
lipoamide; arsenate co-treatment: none
  thermal stability z-score: -0.11

## SLC35D1 (UniProt Q9NTN3)
Potassium arsenate
  thermal stability z-score: -1.34
lipoamide; [1]
  thermal stability z-score: -2.29
lipoamide; arsenate co-treatment: none
  thermal stability z-score: -2.36

## HDDC2 (UniProt Q7Z4H3)
Potassium arsenate
  thermal stability z-score: -0.419
lipoamide; [1]
  thermal stability z-score: -0.204
lipoamide; arsenate co-treatment: none
  thermal stability z-score: -0.127

## TRAF3IP1 (UniProt Q8TDR0)
Potassium arsenate
  thermal stability z-score: 0.694
lipoamide; [1]
  thermal stability z-score: 0.519
lipoamide; arsenate co-treatment: none
  thermal stability z-score: 0.373

## SSX2IP (UniProt Q9Y2D8)
Potassium arsenate
  thermal stability z-score: -0.0542
lipoamide; [1]
  thermal stability z-score: -0.271
lipoamide; arsenate co-treatment: none
  thermal stability z-score: -0.143

## PYROXD1 (UniProt Q8WU10)
UniProt Q8WU10, sequence (Q8WU10 whole entry): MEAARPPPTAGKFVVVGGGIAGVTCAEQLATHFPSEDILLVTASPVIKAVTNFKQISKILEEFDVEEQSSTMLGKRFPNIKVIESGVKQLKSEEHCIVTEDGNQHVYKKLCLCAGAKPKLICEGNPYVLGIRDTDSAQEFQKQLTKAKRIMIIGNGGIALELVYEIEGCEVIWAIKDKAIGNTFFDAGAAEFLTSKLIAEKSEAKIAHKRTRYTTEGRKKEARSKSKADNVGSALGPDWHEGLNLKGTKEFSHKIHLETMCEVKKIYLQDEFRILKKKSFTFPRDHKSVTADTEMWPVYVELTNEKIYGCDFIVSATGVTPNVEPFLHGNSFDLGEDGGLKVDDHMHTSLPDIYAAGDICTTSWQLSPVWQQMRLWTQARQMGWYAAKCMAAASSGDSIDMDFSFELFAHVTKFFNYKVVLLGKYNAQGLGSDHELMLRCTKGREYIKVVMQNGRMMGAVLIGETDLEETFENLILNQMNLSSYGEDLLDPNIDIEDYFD
Potassium arsenate
  thermal stability z-score: -1.15
lipoamide; [1]
  thermal stability z-score: 0.569
lipoamide; arsenate co-treatment: none
  thermal stability z-score: 0.443
